{"source": "patent US9701689B2", "about": "“Substituted pyridines and pyridazines as CCR10 receptor inhibitors” (KYOWA HAKKO KIRIN CO., LTD., priority 2012, dated 2017)", "target": "T1, human CCR10 (Homo sapiens, UniProt P46092)", "T1 construct": "expressed in transfected cells; host or cells: KJMGER8 cells (Namalwa cell-derived line), beta-estradiol-induced; hCCR10G16 cells", "T1 sequence (P46092 1-362)": "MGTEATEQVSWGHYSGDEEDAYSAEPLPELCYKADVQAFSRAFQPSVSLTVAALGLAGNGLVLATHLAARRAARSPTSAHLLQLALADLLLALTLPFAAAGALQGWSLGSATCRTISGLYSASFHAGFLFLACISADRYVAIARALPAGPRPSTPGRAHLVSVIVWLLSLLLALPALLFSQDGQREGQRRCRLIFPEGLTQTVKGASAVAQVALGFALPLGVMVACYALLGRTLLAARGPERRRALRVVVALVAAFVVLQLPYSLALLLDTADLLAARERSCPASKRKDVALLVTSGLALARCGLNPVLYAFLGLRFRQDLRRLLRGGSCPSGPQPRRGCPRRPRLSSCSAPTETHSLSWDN", "assay": "CCR10 antagonistic effect: calcium assay of human CCR10 (CTACK-induced increase of intracellular calcium in hCCR10G16 cells)", "format": "cell-based", "settings": "at a concentration of not more than 1000 nmol/L; human CCR10-expressing hCCR10G16 cells, 300 nmol/L CTACK added; read-out: inhibition of increase in the calcium ion concentration", "procedure,_shortened": "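Inhibition of CTACK-evoked calcium flux (max minus min Fluo-3 fluorescence over ~5 min, FDSS) was calculated against control in β-estradiol-induced human CCR10/Gα16 KJMGER8 cells, after 30 min compound preincubation at 37 °C; CTACK added from a 300 nmol/L solution.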", "data": [{"compound": "Cc1c(S(=O)(=O)Nc2ccn(C)n2)ncc(C(=O)N2CCC(c3ccc(F)cc3)CC2)c1NCc1ccccc1", "note": "[Compound 250, 4-(benzylamino)-5-[4-(4-fluorophenyl)piperidine-1-carbonyl]-3-methyl-N-(1-methyl-1H-pyrazol-3-yl)pyridine-2-sulfonamide]", "values": [{"measurement": "inhibition at up to 1 µM", "result": "≥ 50", "unit": "%"}]}, {"compound": "Cc1cc(NS(=O)(=O)c2ncc(C(=O)N3CCC(c4ccc(F)cc4)CC3)c(NCc3ccccc3)c2C)sn1", "note": "[Compound 251, 4-(benzylamino)-5-[4-(4-fluorophenyl)piperidine-1-carbonyl]-3-methyl-N-(3-methylisothiazol-5-yl)pyridine-2-sulfonamide]", "values": [{"measurement": "inhibition at up to 1 µM", "result": "≥ 50", "unit": "%"}]}, {"compound": "Cc1c(S(=O)(=O)Nc2ccon2)ncc(C(=O)N2CCC(c3ccc(F)cc3)CC2)c1Nc1cc(F)ccc1F", "note": "[Compound 252, 4-(2,5-difluorophenylamino)-5-[4-(4-fluorophenyl)piperidine-1-carbonyl]-N-(isoxazol-3-yl)-3-methylpyridine-2-sulfonamide]", "values": [{"measurement": "inhibition at up to 1 µM", "result": "≥ 50", "unit": "%"}]}, {"compound": "Cc1c(S(N)(=O)=O)ncc(C(=O)N2CCN(c3ccc(F)cc3)C(=O)C2)c1NCc1ccccc1", "note": "[Compound 253, 4-(benzylamino)-5-[4-(4-fluorophenyl)-3-oxopiperazine-1-carbonyl]-3-methylpyridine-2-sulfonamide]", "values": [{"measurement": "inhibition at up to 1 µM", "result": "≥ 50", "unit": "%"}]}, {"compound": "Cc1c(S(=O)(=O)Nc2ccon2)ncc(C(=O)N2CCC(c3ccc(F)cc3)CC2)c1Nc1cccc(F)c1F", "note": "[Compound 254, 4-(2,3-difluorophenylamino)-5-[4-(4-fluorophenyl)piperidine-1-carbonyl]-N-(isoxazol-3-yl)-3-methylpyridine-2-sulfonamide]", "values": [{"measurement": "inhibition at up to 1 µM", "result": "≥ 50", "unit": "%"}]}, {"compound": "Cc1c(S(=O)(=O)Nc2ccon2)ncc(C(=O)N2CCC(c3ccc(F)cc3)CC2)c1Nc1ccccc1F", "note": "[Compound 255, 5-[4-(4-fluorophenyl)piperidine-1-carbonyl]-4-(2-fluorophenylamino)-N-(isoxazol-3-yl)-3-methylpyridine-2-sulfonamide]", "values": [{"measurement": "inhibition at up to 1 µM", "result": "≥ 50", "unit": "%"}]}, {"compound": "N#Cc1cc(OC(F)(F)F)ccc1Nc1c(C(=O)N2CCC(c3ccc(F)cc3)CC2)cnc(S(N)(=O)=O)c1Cl", "note": "[Compound 256, 3-chloro-4-[2-cyano-4-(trifluoromethoxy)phenylamino]-5-[4-(4-fluorophenyl)piperidine-1-carbonyl]pyridine-2-sulfonamide]", "values": [{"measurement": "inhibition at up to 1 µM", "result": "≥ 50", "unit": "%"}]}, {"compound": "N#Cc1ccc(C(F)(F)F)cc1Nc1c(C(=O)N2CCC(c3ccc(F)cc3)CC2)cnc(S(N)(=O)=O)c1Cl", "note": "[Compound 257, 3-chloro-4-[2-cyano-5-(trifluoromethyl)phenylamino]-5-[4-(4-fluorophenyl)piperidine-1-carbonyl]pyridine-2-sulfonamide]", "values": [{"measurement": "inhibition at up to 1 µM", "result": "≥ 50", "unit": "%"}]}, {"compound": "Cc1c(S(=O)(=O)Nc2ccon2)ncc(C(=O)N2CCC(c3ccc(F)cc3)CC2)c1Nc1ccc(F)c(F)c1", "note": "[Compound 258, 4-(3,4-difluorophenylamino)-5-[4-(4-fluorophenyl)piperidine-1-carbonyl]-N-(isoxazol-3-yl)-3-methylpyridine-2-sulfonamide]", "values": [{"measurement": "inhibition at up to 1 µM", "result": "≥ 50", "unit": "%"}]}, {"compound": "Cc1c(S(=O)(=O)Nc2ccon2)ncc(C(=O)N2CCC(c3ccc(F)cc3)CC2)c1Nc1ccc(Br)cc1", "note": "[Compound 260, 4-(4-bromophenylamino)-5-[4-(4-fluorophenyl)piperidine-1-carbonyl]-N-(isoxazol-3-yl)-3-methylpyridine-2-sulfonamide]", "values": [{"measurement": "inhibition at up to 1 µM", "result": "≥ 50", "unit": "%"}]}, {"compound": "Cc1c(S(N)(=O)=O)ncc(C(=O)N2CCC3(CC2)COc2ccccc23)c1NCc1ccccc1", "note": "[Compound 261, 4-(benzylamino)-3-methyl-5-(2H-spiro[benzofuran-3,4′-piperidine]-1′-ylcarbonyl)pyridine-2-sulfonamide]", "values": [{"measurement": "inhibition at up to 1 µM", "result": "≥ 50", "unit": "%"}]}, {"compound": "COC1(c2ccc(F)cc2)CCN(C(=O)c2cnc(S(N)(=O)=O)c(C)c2NCc2ccccc2)CC1", "note": "[Compound 262, 4-(benzylamino)-5-[4-(4-fluorophenyl)-4-methoxypiperidine-1-carbonyl]-3-methylpyridine-2-sulfonamide]", "values": [{"measurement": "inhibition at up to 1 µM", "result": "≥ 50", "unit": "%"}]}, {"compound": "Cc1ccc(Nc2c(C(=O)N3CCC(c4ccc(F)cc4)CC3)cnc(S(=O)(=O)Nc3ccon3)c2C)cc1C", "note": "[Compound 263, 4-(3,4-dimethylphenylamino)-5-[4-(4-fluorophenyl)piperidine-1-carbonyl]-N-(isoxazol-3-yl)-3-methylpyridine-2-sulfonamide]", "values": [{"measurement": "inhibition at up to 1 µM", "result": "≥ 50", "unit": "%"}]}, {"compound": "Cc1cccc(Nc2c(C(=O)N3CCC(c4ccc(F)cc4)CC3)cnc(S(=O)(=O)Nc3ccon3)c2C)c1F", "note": "[Compound 264, 4-(2-fluoro-3-methylphenylamino)-5-[4-(4-fluorophenyl)piperidine-1-carbonyl]-N-(isoxazol-3-yl)-3-methylpyridine-2-sulfonamide]", "values": [{"measurement": "inhibition at up to 1 µM", "result": "≥ 50", "unit": "%"}]}, {"compound": "Cc1c(S(=O)(=O)Nc2ccon2)ncc(C(=O)N2CCC(c3ccc(F)cc3)CC2)c1Nc1cccc(Cl)c1F", "note": "[Compound 265, 4-(3-chloro-2-fluorophenylamino)-5-[4-(4-fluorophenyl)piperidine-1-carbonyl]-N-(isoxazol-3-yl)-3-methylpyridine-2-sulfonamide]", "values": [{"measurement": "inhibition at up to 1 µM", "result": "≥ 50", "unit": "%"}]}, {"compound": "Cc1cc(NS(=O)(=O)c2ncc(C(=O)N3CCC(c4ccc(F)cc4)CC3)c(Nc3ccc(F)cc3C)c2C)sn1", "note": "[Compound 266, 4-(4-fluoro-2-methylphenylamino)-5-[4-(4-fluorophenyl)piperidine-1-carbonyl]-3-methyl-N-(3-methylisothiazol-5-yl)pyridine-2-sulfonamide]", "values": [{"measurement": "inhibition at up to 1 µM", "result": "≥ 50", "unit": "%"}]}, {"compound": "Cc1cc(NS(=O)(=O)c2ncc(C(=O)N3CCC(c4ccc(F)cc4)CC3)c(Nc3cccc(F)c3)c2C)sn1", "note": "[Compound 267, 5-[4-(4-fluorophenyl)piperidine-1-carbonyl]-4-(3-fluorophenylamino)-3-methyl-N-(3-methylisothiazol-5-yl)pyridine-2-sulfonamide]", "values": [{"measurement": "inhibition at up to 1 µM", "result": "≥ 50", "unit": "%"}]}, {"compound": "COc1ccc(F)c(Nc2c(C(=O)N3CCC(c4ccc(F)cc4)CC3)cnc(S(=O)(=O)Nc3ccon3)c2C)c1", "note": "[Compound 268, 4-(2-fluoro-5-methoxyphenylamino)-5-[4-(4-fluorophenyl)piperidine-1-carbonyl]-N-(isoxazol-3-yl)-3-methylpyridine-2-sulfonamide]", "values": [{"measurement": "inhibition at up to 1 µM", "result": "≥ 50", "unit": "%"}]}, {"compound": "COc1cc(Nc2c(C(=O)N3CCC(c4ccc(F)cc4)CC3)cnc(S(=O)(=O)Nc3ccon3)c2C)ccc1F", "note": "[Compound 269, 4-(4-fluoro-3-methoxyphenylamino)-5-[4-(4-fluorophenyl)piperidine-1-carbonyl]-N-(isoxazol-3-yl)-3-methylpyridine-2-sulfonamide]", "values": [{"measurement": "inhibition at up to 1 µM", "result": "≥ 50", "unit": "%"}]}, {"compound": "Cc1c(S(=O)(=O)Nc2ccon2)ncc(C(=O)N2CCC(c3ccc(F)cc3)CC2)c1Nc1ccc(Cl)cc1F", "note": "[Compound 270, 4-(4-chloro-2-fluorophenylamino)-5-[4-(4-fluorophenyl)piperidine-1-carbonyl]-N-(isoxazol-3-yl)-3-methylpyridine-2-sulfonamide]", "values": [{"measurement": "inhibition at up to 1 µM", "result": "≥ 50", "unit": "%"}]}, {"compound": "Cc1c(S(=O)(=O)Nc2ccon2)ncc(C(=O)N2CCC(c3ccc(F)cc3)CC2)c1Nc1cc(Cl)ccc1F", "note": "[Compound 271, 4-(5-chloro-2-fluorophenylamino)-5-[4-(4-fluorophenyl)piperidine-1-carbonyl]-N-(isoxazol-3-yl)-3-methylpyridine-2-sulfonamide]", "values": [{"measurement": "inhibition at up to 1 µM", "result": "≥ 50", "unit": "%"}]}, {"compound": "Cc1c(S(=O)(=O)Nc2ccon2)ncc(C(=O)N2CCC(c3ccc(F)cc3)CC2)c1Nc1cccc(F)c1Cl", "note": "[Compound 272, 4-(2-chloro-3-fluorophenylamino)-5-[4-(4-fluorophenyl)piperidine-1-carbonyl]-N-(isoxazol-3-yl)-3-methylpyridine-2-sulfonamide]", "values": [{"measurement": "inhibition at up to 1 µM", "result": "≥ 50", "unit": "%"}]}, {"compound": "Cc1c(S(=O)(=O)Nc2ccon2)ncc(C(=O)N2CCC(c3ccc(F)cc3)CC2)c1Nc1ccc(F)cc1Cl", "note": "[Compound 273, 4-(2-chloro-4-fluorophenylamino)-5-[4-(4-fluorophenyl)piperidine-1-carbonyl]-N-(isoxazol-3-yl)-3-methylpyridine-2-sulfonamide]", "values": [{"measurement": "inhibition at up to 1 µM", "result": "≥ 50", "unit": "%"}]}, {"compound": "Cc1c(S(=O)(=O)Nc2ccon2)ncc(C(=O)N2CCC(c3ccc(F)cc3)CC2)c1Nc1cc(F)ccc1Cl", "note": "[Compound 274, 4-(2-chloro-5-fluorophenylamino)-5-[4-(4-fluorophenyl)piperidine-1-carbonyl]-N-(isoxazol-3-yl)-3-methylpyridine-2-sulfonamide]", "values": [{"measurement": "inhibition at up to 1 µM", "result": "≥ 50", "unit": "%"}]}, {"compound": "Cc1c(S(=O)(=O)Nc2ccon2)ncc(C(=O)N2CCC(c3ccc(F)cc3)CC2)c1Nc1cc(F)cc(F)c1F", "note": "[Compound 275, 5-[4-(4-fluorophenyl)piperidine-1-carbonyl]-N-(isoxazol-3-yl)-3-methyl-4-(2,3,5-trifluorophenylamino)pyridine-2-sulfonamide]", "values": [{"measurement": "inhibition at up to 1 µM", "result": "≥ 50", "unit": "%"}]}, {"compound": "Cc1cccc(Nc2c(C(=O)N3CCC(c4ccc(F)cc4)CC3)cnc(S(=O)(=O)Nc3cc(C)ns3)c2C)c1", "note": "[Compound 276, 5-[4-(4-fluorophenyl)piperidine-1-carbonyl]-3-methyl-N-(3-methylisothiazol-5-yl)-4-(m-tolylamino)pyridine-2-sulfonamide]", "values": [{"measurement": "inhibition at up to 1 µM", "result": "≥ 50", "unit": "%"}]}, {"compound": "Cc1cc(NS(=O)(=O)c2ncc(C(=O)N3CCC(c4ccc(F)cc4)CC3)c(Nc3ccccc3)c2C)sn1", "note": "[Compound 277, 5-[4-(4-fluorophenyl)piperidine-1-carbonyl]-3-methyl-N-(3-methylisothiazol-5-yl)-4-(phenylamino)pyridine-2-sulfonamide]", "values": [{"measurement": "inhibition at up to 1 µM", "result": "≥ 50", "unit": "%"}]}]}
